According to patent US11034648B2, “Cystobactamide derivatives” (priority 2017, dated 2021):
In brackets after ≈: the same amount, converted by molar mass. Read-outs that look alike come from different tables or passages of the source.

Experiments:
E. coli ΔtolC = experiment: microbe, parasite or virus in culture; format: cell-based; conditions: Escherichia coli, 16 h, read-out: MIC E. coli ΔtolC, small panel, Tables 1a/1b; no visual growth after approx. 16 h
Procedure: (§1) Cystobactamid derivatives synthesized were tested against relevant Gram negative and positive bacteria of clinical interest. Experimental procedures used for the biological characterization of the compounds are the same as previously described in WO 2016/082934.
(§2) Bacterial strains used in susceptibility assays (minimum inhibitory concentration, MIC) were either part of our internal strain collection or purchased from the German Collection of Microorganisms and Cell Cultures (Deutsche Sammlung von Mikroorganismen und Zellkulturen, DSMZ) and the American Type Culture Collection (ATCC). The susceptible E. coli strain (WT) and fluoroquinolone-resistant mutants E. coli WT-3 and WT-III were kindly provided by Prof Dr. P. Heisig, Pharmaceutical Biology and Microbiology, University of Hamburg, Germany. The efflux-deficient strain P. aeruginosa ΔmexAB was kindly provided by Prof Dr. S. Häußler, Institute for Molecular Bacteriology, TWINCORE, Hannover, Germany. All compounds were prepared as DMSO stocks and MIC values were determined in standard microbroth dilution assays in 96-well MTPs as described in Baumann et al., Angew Chem Int Ed Engl. 2014; 53(52):14605-9. In brief, overnight cultures of bacteria were diluted in either tryptic soy broth (TSB: 1.7% peptone casein, 0.3% peptone soymeal, 0.25% glucose, 0.5% NaCl, 0.25% K2HPO4; pH 7.3; S. pneumoniae and E. faecalis) or cation-adjusted Müller-Hinton Broth (BBL™, BD; all other bacteria) and adjusted to 10^4-10^6 cfu/mL. Bacteria were grown in the presence of the derivatives in serial dilution for approx. 16 h at 30-37° C. MIC values were determined and were defined as the antibiotic concentration at which no visual growth of bacteria was observed.

P. aeruginosa ΔmexAB = experiment: microbe, parasite or virus in culture; format: cell-based; conditions: Pseudomonas aeruginosa, 16 h, read-out: MIC P. aeruginosa ΔmexAB, efflux-deficient strain; small panel, Tables 1a/1b
Procedure: as §1, §2

E. coli gyrase = target: T1, E. coli gyrase (Escherichia coli, UniProt P0AES4+P0AES6); experiment: E. coli gyrase supercoiling (sc) assay; format: biochemical; conditions: supercoiling assay kit, agarose gel quantification; read-out: Ec gyrase sc IC50
T1 construct: purchased Inspiralis
Procedure: The target activity on E. coli gyrase was assessed as described in Baumann et al., Angew Chem Int Ed Engl. 2014; 53(52):14605-9 using a commercial supercoiling (sc) assay kit from Inspiralis according to the manufacturer's instructions. The samples were separated on 0.8% (w/v) agarose gels and relaxed and supercoiled plasmid was visualized by ethidium bromide staining. Half-inhibitory concentrations (IC50) were calculated after image analysis and quantification (ImageJ) based on sigmoidal curve fitting (OriginPro).

E. coli WT DSM-1116 = experiment: MIC, microbroth dilution susceptibility assay; format: cell-based; conditions: Escherichia coli, no visual growth after approx. 16 h
Procedure: as §1, §2

P. aeruginosa WT PA14 = experiment: MIC, microbroth dilution susceptibility assay; format: cell-based; conditions: Pseudomonas aeruginosa
Procedure: as §1, §2

S. aureus Newman = experiment: MIC, microbroth dilution susceptibility assay; format: cell-based; conditions: Staphylococcus aureus, NEWMAN, read-out: MIC S. aureus Newman
Procedure: as §1, §2

S. marcescens DSM-30121 = experiment: MIC, microbroth dilution susceptibility assay; format: cell-based; conditions: Serratia marcescens, DSM30121; large panel, Table 2a
Procedure: as §1, §2

S. aureus ATCC-29213 = experiment: MIC, microbroth dilution susceptibility assay; format: cell-based; conditions: Staphylococcus aureus, ATCC29213; large panel, Table 2a
Procedure: as §1, §2

A. baumannii DSM-30008 = experiment: MIC, microbroth dilution susceptibility assay; format: cell-based; conditions: Acinetobacter baumannii, DSM30008; large panel, Table 2a
Procedure: as §1, §2

C. freundii DSM-30039 = experiment: MIC, microbroth dilution susceptibility assay; format: cell-based; conditions: Citrobacter freundii, DSM30039; large panel, Table 2a
Procedure: as §1, §2

E. coli WT = experiment: MIC, microbroth dilution susceptibility assay; format: cell-based; conditions: Escherichia coli; large panel, Table 2a
Procedure: as §1, §2

K. pneumoniae DSM-30104 = experiment: MIC, microbroth dilution susceptibility assay; format: cell-based; conditions: Klebsiella pneumoniae, DSM30104; large panel, Table 2a
Procedure: as §1, §2

E. aerogenes DSM-30053 = experiment: MIC, microbroth dilution susceptibility assay; format: cell-based; conditions: Klebsiella aerogenes, DSM30053; large panel, Table 2a
Procedure: as §1, §2

P. vulgaris DSM-2140 = experiment: MIC, microbroth dilution susceptibility assay; format: cell-based; conditions: Proteus vulgaris, DSM2140; large panel, Table 2a
Procedure: as §1, §2

[1] = DSM1116, 16 h, read-out: MIC E. coli WT DSM-1116, small panel, Tables 1a/1b
[2] = PA14, read-out: MIC P. aeruginosa WT PA14
[3] = DSM1116, small panel, Tables 1a/1b, read-out: MIC E. coli WT DSM-1116
[4] = PA14, small panel, Tables 1a/1b, read-out: MIC P. aeruginosa WT PA14

T1 sequence (P0AES4 whole entry, one chain of several): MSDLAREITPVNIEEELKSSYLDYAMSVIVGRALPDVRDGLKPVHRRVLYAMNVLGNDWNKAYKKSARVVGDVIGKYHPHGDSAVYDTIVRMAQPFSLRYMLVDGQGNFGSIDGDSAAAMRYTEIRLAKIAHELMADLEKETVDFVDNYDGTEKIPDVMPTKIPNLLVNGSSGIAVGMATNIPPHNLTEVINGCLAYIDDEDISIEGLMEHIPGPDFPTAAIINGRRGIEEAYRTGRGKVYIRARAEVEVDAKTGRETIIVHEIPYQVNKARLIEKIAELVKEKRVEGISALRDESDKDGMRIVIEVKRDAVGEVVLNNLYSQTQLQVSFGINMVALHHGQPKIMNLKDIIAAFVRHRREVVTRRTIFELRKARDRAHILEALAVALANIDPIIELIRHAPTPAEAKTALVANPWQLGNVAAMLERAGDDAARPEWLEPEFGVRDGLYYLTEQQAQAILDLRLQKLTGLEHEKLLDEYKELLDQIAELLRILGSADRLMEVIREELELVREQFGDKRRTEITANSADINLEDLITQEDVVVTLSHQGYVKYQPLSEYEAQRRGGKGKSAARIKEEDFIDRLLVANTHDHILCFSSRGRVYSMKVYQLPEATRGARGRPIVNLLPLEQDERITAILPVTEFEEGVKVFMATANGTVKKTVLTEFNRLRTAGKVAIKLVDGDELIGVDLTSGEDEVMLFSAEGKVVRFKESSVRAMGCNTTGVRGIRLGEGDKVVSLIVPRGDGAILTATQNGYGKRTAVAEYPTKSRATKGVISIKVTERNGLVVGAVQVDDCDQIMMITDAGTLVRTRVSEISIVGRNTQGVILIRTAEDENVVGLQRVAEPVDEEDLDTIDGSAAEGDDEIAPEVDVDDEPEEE

| SMILES | MIC (E. coli ΔtolC) [µg/mL] | MIC (P. aeruginosa ΔmexAB) [µg/mL] | IC50 (E. coli gyrase) [µM] | MIC (E. coli WT DSM-1116; [1]) [µg/mL] | MIC (P. aeruginosa WT PA14; [2]) [µg/mL] | MIC (S. aureus Newman) [µg/mL] | MIC (E. coli WT DSM-1116; [3]) [µg/mL] | MIC (S. marcescens DSM-30121) [µg/mL] | MIC (S. aureus ATCC-29213) [µg/mL] | MIC (A. baumannii DSM-30008) [µg/mL] | MIC (P. aeruginosa WT PA14; [4]) [µg/mL] | MIC (S. aureus Newman; small panel, Tables 1a/1b) [µg/mL] | MIC (C. freundii DSM-30039) [µg/mL] | MIC (E. coli WT) [µg/mL] | MIC (K. pneumoniae DSM-30104) [µg/mL] | MIC (E. aerogenes DSM-30053) [µg/mL] | MIC (P. vulgaris DSM-2140) [µg/mL] |
| --- | --- | --- | --- | --- | --- | --- | --- | --- | --- | --- | --- | --- | --- | --- | --- | --- | --- |
| CC(C)Oc1c(NC(=O)c2ccc(NC(=O)[C@H](CC(N)=O)NC(=O)c3ccc(NC(=O)c4ccc(C5(C(F)(F)F)N=N5)cc4)cc3)cc2)ccc(C(=O)Nc2ccc(C(=O)O)cc2)c1O [Compound 37, (S)-4-(4-(4-(4-amino-4-oxo-2-(4-(4-(3-(trifluoromethyl)-3H-diazirin-3-yl)benzamido)benzamido)butanamido)benzamido)-2-hydroxy-3-isopropoxybenzamido)benzoic acid] | 8 (≈ 8.94 µM) | > 64 | 16 | 16 (≈ 17.9 µM) | > 64 | > 64 |  |  |  |  |  |  |  |  |  |  |  |
| CC(C)Oc1c(N)ccc(C(=O)Nc2ccc(C(=O)N[C@@H](CC(N)=O)C(=O)Nc3ccc(C(=O)Nc4ccc(C(=O)Nc5ccc(C(=O)O)cc5)c(O)c4OC(C)C)cc3)cc2)c1O [Compound 49, (S)-4-(4-(4-(4-amino-2-(4-(4-amino-2-hydroxy-3-isopropoxybenzamido)benzamido)-4-oxobutanamido)benzamido)-2-hydroxy-3-isopropoxybenzamido)benzoic acid] | 0.01 to 0.06 (≈ 0.0114 to 0.0685 µM) | 2 to 4 (≈ 2.28 to 4.57 µM) |  |  |  |  | 2 (≈ 2.28 µM) | > 64 | > 64 | 32 (≈ 36.5 µM) | > 64 | > 64 | 2 (≈ 2.28 µM) | 2 (≈ 2.28 µM) | > 64 | > 64 | 4 (≈ 4.57 µM) |
| CC(C)Oc1c(NC(=O)c2ccc(NC(=O)c3ccc(NC(=O)[C@H](CC(N)=O)NC(=O)c4ccc(NC(=O)c5ccc([N+](=O)[O-])cc5)cc4)cc3)c(OC(C)C)c2O)ccc(C(=O)O)c1O [Compound 61, (S)-4-(4-(4-(4-amino-2-(4-(4-nitrobenzamido)benzamido)-4-oxobutanamido)benzamido)-2-hydroxy-3-isopropoxybenzamido)-2-hydroxy-3-isopropoxybenzoic acid] | 0.125 to 0.25 (≈ 0.138 to 0.276 µM) | 1 to 2 (≈ 1.1 to 2.21 µM) |  |  |  |  | 0.5 (≈ 0.552 µM) | > 64 | 0.05 (≈ 0.0552 µM) | 1 (≈ 1.1 µM) | > 64 | 0.05 (≈ 0.0552 µM) | 0.5 (≈ 0.552 µM) | 0.5 (≈ 0.552 µM) | > 64 | > 64 | 0.5 (≈ 0.552 µM) |
| CC(C)Oc1c(NC(=O)c2ccc(NC(=O)c3ccc(NC(=O)[C@H](CC(N)=O)NC(=O)c4ccc(NC(=O)c5ccc(C#N)cc5)cc4)cc3)c(OC(C)C)c2O)ccc(C(=O)O)c1O [Compound 62, (S)-4-(4-(4-(4-amino-2-(4-(4-cyanobenzamido)benzamido)-4-oxobutanamido)benzamido)-2-hydroxy-3-isopropoxybenzamido)-2-hydroxy-3-isopropoxybenzoic acid] | ≤ 0.03 | 1 (≈ 1.13 µM) |  |  |  |  | 0.25 (≈ 0.282 µM) | > 64 | 0.025 (≈ 0.0282 µM) | 0.5 (≈ 0.564 µM) | > 64 | ≤ 0.03 | 0.125 (≈ 0.141 µM) | 0.125 to 0.25 (≈ 0.141 to 0.282 µM) | > 64 | > 64 | 0.25 (≈ 0.282 µM) |
| CC(C)Oc1c(-n2cc(-c3ccc(NC(=O)[C@H](CC(N)=O)NC(=O)c4ccc(NC(=O)c5ccc(C#N)cc5)cc4)cc3)nn2)ccc(C(=O)Nc2ccc(C(=O)O)cc2)c1O [Compound 119, 4-(4-(4-(4-(4-amino-2-(4-(4-cyanobenzamido)benzamido)-4-oxobutanamido)phenyl)-1H-1,2,3-triazol-1-yl)-2-hydroxy-3-isopropoxybenzamido)benzoic acid] | < 0.03 | 2 (≈ 2.39 µM) | 1.5 | 0.06 (≈ 0.0718 µM) | 8 (≈ 9.57 µM) | < 0.03 |  |  |  |  |  |  |  |  |  |  |  |
| C/C(=C\c1ccc(C#N)cc1)C(=O)Nc1ccc(C(=O)N[C@@H](CC(N)=O)C(=O)Nc2ccc(C(=O)Nc3ccc(C(=O)Nc4ccc(C(=O)O)c(O)c4OC(C)C)c(O)c3OC(C)C)cc2)cc1 [Compound 124, (S,E)-4-(4-(4-(4-Amino-2-(4-(3-(4-cyanophenyl)-2-methylacrylamido)benzamido)-4-oxobutanamido)benzamido)-2-hydroxy-3-isopropoxybenzamido)-2-hydroxy-3-isopropoxybenzoic acid] |  |  | 0.2 | 0.125 (≈ 0.135 µM) |  |  | 0.5 (≈ 0.54 µM) |  |  |  |  | 0.06 (≈ 0.0648 µM) |  |  |  |  |  |
| C/C(=C\c1ccc(C#N)cc1)C(=O)Nc1ccc(C(=O)N[C@@H](CC(N)=O)C(=O)Nc2ccc(C(=O)Nc3ccc(C(=O)Nc4ccc(C(=O)O)cc4)c(O)c3OCC(C)C)cc2)cc1 [Compound 125, (S,E)-4-(4-(4-(4-amino-2-(4-(3-(4-cyanophenyl)-2-methylacrylamido)benzamido)-4-oxobutanamido)benzamido)-2-hydroxy-3-isobutoxybenzamido)benzoic acid] | 0.06 (≈ 0.0693 µM) | > 64 |  |  |  |  | 0.5 (≈ 0.577 µM) |  |  |  | > 64 | 0.06 (≈ 0.0693 µM) |  |  |  |  |  |
| CC(C)COc1c(NC(=O)c2ccc(NC(=O)[C@H](CC(N)=O)NC(=O)c3ccc(NC(=O)c4ccc(C#N)cc4)cc3)cc2)ccc(C(=O)Nc2ccc(C(=O)O)cc2)c1O [Compound 126, (S)-4-(4-(4-(4-amino-2-(4-(4-cyanobenzamido)benzamido)-4-oxobutanamido)benzamido)-2-hydroxy-3-isobutoxybenzamido)benzoic acid] | < 0.03 | > 64 |  |  |  |  | 0.25 (≈ 0.303 µM) |  |  |  | > 64 | 0.25 (≈ 0.303 µM) |  |  |  |  |  |
| CC(C)Oc1c(NC(=O)c2ccc(NC(=O)[C@H](CC(N)=O)NC(=O)c3ccc(C#Cc4ccc(C#N)cc4)cc3)cc2)ccc(C(=O)Nc2ccc(C(=O)O)cc2)c1O [Compound 128, (S)-4-(4-(4-(4-Amino-2-(4-((4-cyanophenyl)ethynyl)benzamido)-4-oxobutanamido)benzamido)-2-hydroxy-3-isopropoxybenzamido)benzoic acid] | 0.06 (≈ 0.0757 µM) | 0.5 (≈ 0.631 µM) |  | 0.06 (≈ 0.0757 µM) | > 64 | < 0.03 |  |  |  |  |  |  |  |  |  |  |  |
